Entries after “also recorded” stand apart in the source; their conditions may differ.
Experiments:
[1] = tested on: G93A-SOD1 transgenic mice; assay: G93A-SOD1 model of ALS, treatment from 40 days of age; type: in vivo, mouse
Procedure: FIG. 24A, FIG. 24B, FIG. 24C and FIG. 24D. Example 45 Compound (P7C3) Provides Therapeutic Benefit in Animal Model of Amyotrophic Lateral Sclerosis (ALS). Female G93A SOD1 mice (n=30 in each group, with all mice sibling matched across treatment groups) were treated with either vehicle or P7C3 (10 mg/kg i.p. twice daily) starting at 40 days of age. […] This score is determined as follows: ‘0’=full extension of hind legs away from lateral midline when the test mouse is suspended by its tail, and can hold this for 2 seconds, suspended 2-3 times; ‘1’=collapse or partial collapse of leg extension towards lateral midline (weakness) or trembling of hind legs during tail suspension; ‘2’=toes curl under at least twice during walking of 12 inches, or any part of foot drags along cage bottom/table; ‘3’=rigid paralysis or minimal joint movement, foot not being used for forward motion; and ‘4’=mouse cannot right itself within 30 seconds from either side. With further disease progression, vehicle-treated mice show the expected decline in retention time on the accelerating rotarod, with retention time averaged across 4 trials (FIG. 24C, open bars). P7C3-treated mice, however, show a consistent trend towards improved performance on this task after onset of disease (FIG. 24C, filled bars), with statistically significant improvement on days 131, 138 and 145 (*, p<0.001, Student's t Test). All graphical data shown above is mean+/−SEM, with statistical analysis conducted using the Student's t Test). As another means of disease progression, walking gait was evaluated. […] Front paws are dipped in red ink, and back paws are dipped in black ink. […] All analysis was conducted blind to treatment group.
P7C3 was intraperitoneally administered to female G93A-SOD1 transgenic mice using a treatment paradigm of 10 mg/kg P7C3 i.p. twice a day, compared to vehicle, starting at 40 days of age. This treatment scheme was selected based on standard protocols for initial proof of concept screens in these mice. To control for transgene copy number, mice are sibling matched between treatment groups, as per standard protocol. After initiation of P7C3 or vehicle treatment, date of onset of illness is determined by peak weight, and initial progression of disease is defined as the day at which mice fall to 10% below their maximum weight. Mice are also assessed daily by a standard determination of neurological severity score, with a score of 2 or worse for two consecutive days serving as an additional marker of illness progression. This score is determined blind to treatment group with the scoring system described in the legend for the figure. […]
As an initial test of efficacy in this disease model, we intraperitoneally administered P7C3 to female G93A-SOD1 transgenic mice using a treatment paradigm of 20 mg/kg/day P7C3, with vehicle administered to siblings, starting at 40 days of age. […] To control for transgene copy number, mice were sibling matched between treatment groups, as per standard protocol, and quantitative PCR was performed to ensure that the copy number was maintained within the normal range. After initiation of P7C3 or vehicle treatment, date of onset of illness was determined by peak weight, and initial progression of disease was defined as the day at which mice fell to 10% below their maximum weight. Mice were also assessed daily by a standard measure of neurological severity score ranging from 0-4, with a higher number reflecting greater neurologic impairment. […]

[2] = tested on: hippocampal neurogenesis; assay: Neurogenic efficacy of orally administered compound, dose response; type: in vivo, mouse; conditions: for pro-neurogenic or neuroprotective efficacy, oral: daily oral gavage for 7 days
Excerpt: FIG. 7: Neurogenic efficacy of orally administered Example 45 Compound was dose-related. […] Results shown are the average obtained from analysis of 5 adult wild type male mice at each dose.
Pharmacokinetic analysis of Example 45 Compound in plasma and whole brain tissue was undertaken after single IV, IP and oral gavage administrations. […] These favorable pharmacological properties facilitated a dose response experiment wherein daily oral administration of Example 45 Compound to adult mice was monitored for both brain levels of the chemical and pro-neurogenic efficacy (FIG. 7).

[3] = tested on: TH+ dopaminergic neurons in the substantia nigra; assay: MPTP model of Parkinson's disease, treatment before, during and after MPTP; type: in vivo, mouse (C57BL/6); conditions: 10 mg/kg i.p. twice daily; MPTP 30 mg/kg/day for 5 days
Procedure: FIG. 25A and FIG. 25B. Example 6a Compound (P7C3A20) Provides Therapeutic Benefit in Animal Model of Parkinson's Disease. Mice were treated with MPTP (30 mg/kg i.p.) or Vehicle only for 5 days and then immunohistochemically analyzed for tyrosine hydroxylase staining (TH) 21 days later (FIG. 25A). Treatment with MPTP and Vehicle (n=6) reduced the number of TH+ neurons in the substantia nigra (FIG. 25B) by approximately 50% (*, p=0.0002, Student's t test) relative to mice that received Vehicle only (n=8). […] TH+ neurons in the substantia nigra of every mouse were counted blind to treatment group by two investigators using Image J software, and results were averaged.
MPTP (1-methyl-4-phenyl-1,2,3,6-tetrahydropyridine) is a potent neurotoxin that selectively kills dopaminergic neurons in the substantia nigra of both mice and monkeys, causing a clinical picture resembling PD. The MPTP toxicity model can therefore be used to study the death of dopaminergic neurons with the goal of developing new treatments for PD based on neuroprotective strategies found to be effective in these neurons. […] TH-positive cells were counted in the substantia nigra area.

[4] = 10 mg/kg i.p. twice a day from 40 days of age

With `OC(CNc1ccccc1)Cn1c2ccc(Br)cc2c2cc(Br)ccc21` (stereo not drawn) [Example P7C3] the accelerating rotarod performance [1, 4] was “significantly improved performance in the accelerating rotarod task”, the “age at neurological severity score of 2” value [1, 4] was “significantly delays the age at which G93A-SOD1 mice attain a neurological severity score of 2” and the “disease progression: time point of drop to 10% below maximum weight” value [1, 4] was “slows disease progression”. For the same molecule, the “walking gait (ink footprint)” value [1, 4] was “preservation of normal gait on day 118” and the survival ([1]; 20 mg/kg/day from 40 days of age) was “did not translate into increased survival of the animals”.
With `OC(CNc1ccccc1)Cn1c2ccc(Br)cc2c2cc(Br)ccc21` (stereo not drawn) [Example 45 Compound] the “oral dose giving maximal pro-neurogenic efficacy” value ([2]; daily oral administration to adult mice) was at least 5 mg/kg, the “pro-neurogenic or neuroprotective efficacy, oral” value ([2]; doses 5 to 40 mg/kg) was “roughly double that of vehicle control” and the “pro-neurogenic or neuroprotective efficacy, oral” value ([2]; doses below 1.0 mg/kg) was “no greater than vehicle control”.
`COc1cccc(NCC(F)Cn2c3ccc(Br)cc3c3cc(Br)ccc32)c1` (stereo not drawn) [Example P7C3A20, N-(3-(3,6-dibromo-9H-carbazol-9-yl)-2-fluoropropyl)-3-methoxyaniline] was tested, and the “MPTP-mediated death of TH+ neurons in the substantia nigra” value [3] was “significantly attenuates MPTP-mediated killing of substantia nigra dopaminergic neurons; also recorded: significantly attenuated”.
